Laboratory results reported in EP0200942B1, “New derivatives of an aminoketone” (NIPPON KAYAKU KABUSHIKI KAISHA, priority 1985, dated 1986).

Assays:
[1] = tested on: Spinal reflex (flexor reflex); assay: Spinal reflex (flexor reflex) inhibitory action, evoked electromyogram in anesthetized rats; assay type: in vivo, male rats; Wistar strain; details: intravenous (i.v.) administration of 5 mg/kg in physiological saline; average amplitude over 30 minutes after vs 10 minutes before administration; rats anesthetized with urethane and α-chloralose
Protocol: 1. Spinal reflex (flexor reflex) inhibitory action
Animals (male rats; Wistar strain) were anesthetized with urethane and α-chloralose, and their tibial nerve was dissected, and stimulated (0.1 msec, 0.1 Hz, ultra-maximum stimulation) by the stimulator (Model MSE-3; Nippon Koden). […] The amplitude of this evoked electromyogram was recorded on a pen recorder through a peak holder.The activity of the compounds was expressed by flexor reflex inhibition rate. That is, the flexor reflex inhibition rate was calculated from the following equation (A): [formula] wherein A is the average amplitude of the electromyogram in the period of 10 minuts before the administration of the test compound, and B is the average amplitude of the electromyogram in the period of 30 minutes after the intravenous (i.v.) administration of 5 mg/kg of the test compound dissolved in a physiological saline solution.

[2] = Acute toxicity, LD50 in mice intravenously; details: mouse, in vivo, iv, read-out: LD₅₀ (Mice; i.v.)
Protocol: LD₅₀ (mg/kg) of the each test compound given to mice intravenously was determined.

[3] = tested on: ischemic decerebrate rigidity; assay: Action to ischemic decerebrate rigidity of rat (Fukuda et al method); assay type: in vivo, male Wistar rat; details: intravenous administration 3.5 mg/kg; average forepaw tension for 10 minutes at peak period after vs before administration
Text: 2. Action to ischemic decerebrate rigidity of rat
The effects on the ischemic decerebrate rigidity were investigated by using Fukuda et al method (H. Fukuda, T. Ito, S. Hashimoto and Y. Kudo: Japan. J. Pharmacol., 24, 810 (1974)). The rigidity is due to hyperactivity of α-motorneurones. The rigid animals provide a good experimental model for some type of spasticity in man.
A tracheal cannula was inserted in each of male Wistar rat under ether anesthesia. Both of common carotid arteries were ligated and the basilar artery was cauterized with a bipolar coagulator to block the blood circulation and to prepare a rigidity sample. The rigidity was recorded as described below. A rat was fixed on its back on a fixing stand and its forepaws were allowed to grisp an end of a celluloid plate provided with strain gauges on both sides thereof. A change of the resistance observed when the celluloid plate was forced up by the rigidity of the forepaws was recorded as a tension through a bridge circuit on a self-balancing recorder. A rigidity inhibition rate was calculated according to the following equation: [formula] when C represents an average tension (g) for 10 minutes at peak period before the administration of a test compound and D represents an average tension (g) for 10 minutes at peak period recorded after the intravenous administration 3.5 mg/kg of a test compound.

Structure (SMILES) | Inhibition rate (%) (flexor reflex inhibition rate) [1] | LD50 [2] [mg/kg] | Inhibition rate (%) (rigidity inhibition rate) [3]
COc1ccc(C(=O)C(C)CN2CCCC2)c2c1CCCC2 (stereo not drawn) [2-1, 1-(4-Methoxy-5,6,7,8-tetrahydro-1-naphthyl)-2-methyl-3-pyrrolidino-1-propanone] | 53.6 | 38.1 | 46.1
CCC(CN1CCCC1)C(=O)c1ccc(OC)c2c1CCCC2 (stereo not drawn) [2-11, 1-(4-Methoxy-5,6,7,8-tetrahydro-1-naphthyl)-2-ethyl-3-pyrrolidino-1-propanone] | 50.0 | 35.4 | 53.9
CC(CN1CCCC1)C(=O)c1ccc(C(F)(F)F)cc1 (stereo not drawn) [4-1, 1-(4-Trifluoromethylphenyl)-2-methyl-3-pyrrolidino-1-propanone] | 40.3 | 61.1 | 23.6
